{"source": "patent US8128914B2", "about": "“Topical compositions containing CIS-6-nonenol and its derivatives and methods for treating skin” (Avon Products, Inc, priority 2008, dated 2012)", "tested_on": "Metallothionein 2A (MT2A) mRNA", "experiment": "Stimulation of Metallothioneins: MT2A mRNA in normal human dermal fibroblasts (QuantiGene multiplex branched DNA assay)", "assay_type": "cell-based", "conditions": "24 hours, vs ethanol vehicle control, p<0.05", "description": "Normal human dermal fibroblasts were cultured in 96 well tissue culture treated plates, containing appropriate culture medium. Stock solution of cis-6 nonenol was made in ethanol. Cells were treated with test material or ethanol vehicle control diluted in growth medium for 24 hours in a humidified 37° C. incubator with 10% CO2. After incubation, growth medium from each plate was removed and 100 μl of lysis buffer was added to the wells and placed in 37° C. incubator with 10% CO2 for 30 minutes. At the end of incubation, the cells were collected in freezer plates and placed in −80° C. freezer, until analysis. Changes in mRNA for Metallothionein 2A (MT2A) after treatment were analysed using Panomics' QuantiGene® multiplex assay that employs a branched DNA technology. Percent increase in mRNA for MT2A was calculated by comparing the test results to that of the vehicle control. […] All results reported are statistically significant at p<0.05.", "data": [{"smiles": "CC/C=C\\CCCCCO", "note": "[Cis-6-nonenol, cis-6-nonenol]", "values": [{"measurement": "stimulation in mRNA levels for Metallothionein 2A", "setting": "0.001% cis-6-nonenol", "result": 97, "unit": "%"}, {"measurement": "stimulation in mRNA levels for Metallothionein 2A", "setting": "0.01% cis-6-nonenol", "result": 96, "unit": "%"}]}]}
